Experimental data published in patent US20040072205A1, “Methods for treating neuronal disorders” (priority 2002, published 2004).

How the values were obtained:
[1] = tested on: hSOD1^G93A transgenic ALS mice; test: Minocycline treatment of ALS mice: Rotarod onset and mortality; format: in vivo, mouse
Procedure: We tested the effectiveness of minocycline on a mouse model of ALS and investigated its mechanism of neuroprotection. […] We evaluated the effect of minocycline on one of the ALS mouse models expressing the mutant human SOD1^G93A transgene. Minocycline (10 mg/kg body weight/day) was injected beginning at five weeks of age. Mutant hSOD1^G93A transgenic mice were evaluated weekly on a Rotarod to follow disease progression.
Minocycline administration started at six weeks of age at a slightly higher dose (11 mg/kg body weight/day).
ALS mice (Jackson Laboratories, Bar Harbor, Me.) were injected intraperitoneally daily with saline or minocycline (Sigma, St. Louis, Mo.). Strength and coordination were evaluated weekly by Rotarod (Columbus Instruments, Columbus, Ohio). Disease onset was defined as the first day a mouse could not remain on the Rotarod for 10 min at 15 rpm. Mortality was scored as age of death or age when the mouse was unable to right itself within 30 seconds (Li et al., supra).

[2] = tested on: human patients with ALS; conditions: cited from earlier work

SMILES	Onset of impaired motor performance (Rotarod), age ([1]; 10 mg/kg body weight/day i.p. from five weeks of age, saline 90.3±2.2 days, P<0.001) [days]	Survival, age ([1]; 10 mg/kg body weight/day i.p. from five weeks of age, saline 125.6±3.4 days, P<0.01) [days]	Mortality, age ([1]; modified protocol: 11 mg/kg body weight/day from six weeks of age, n=8/group, saline 126.3±2.7 days, P<0.05) [days]	side effects [2]
CN(C)c1ccc(O)c2c1C[C@H]1C[C@H]3[C@H](N(C)C)C(O)=C(C(N)=O)C(=O)[C@@]3(O)C(O)=C1C2=O [Minocycline]	109.0 ± 1.5	136.8 ± 1.2	139.0 ± 2.1	
Nc1nc2ccc(OC(F)(F)F)cc2s1 [riluzole]				causes liver damage
